Test results taken from paper PMC9872612, “Mouse α-Defensins: Structural and Functional Analysis of the 17 Cryptdin Isoforms Identified from a Single Jejunal Crypt” (Infection and Immunity, 2022).
Values joined by “and” are separate entries in the source; they are usually repeats but may differ in a detail not shown here. Equal entries are not always repeated. Positions of bridges follow the written chain, without caps; N, C: chain ends. No end group written: not given here.

Columns and labels:
[1] = tested on: E. coli ATCC 25922; test: virtual colony count (vCC) bactericidal assay, E. coli; assay type: cell-based, Escherichia coli
Method: (§1) All cryptdins were subjected to a virtual colony count assay (vCC) we have previously developed ([67]), in which E. coli ATCC 25922 and S. aureus ATCC 29213 are exposed to a 2-fold serial dilution of cryptdin for 2 h in 10 mM sodium phosphate buffer (pH 7.4), before bacterial growth in the presence of Mueller-Hinton broth is monitored spectrophotometrically at 650 nm for a period of 12 h. The dose-dependent killing of E. coli and S. aureus by all 17 cryptdins is shown as bacterial survival curves in Fig. 6. The virtual lethal doses (vLDs) of cryptdins at 50%, 10%, 1% and 0.1% bacterial survival (or the vLD50, vLD90, vLD99, and vLD99.9 values) are tabulated in Table 1. The bactericidal activity of the Crp1 subclass of cryptdins is highly variable despite a high degree of sequence identity, with Crp1, Crp6, Crp11, and Crp16 being the weakest against both strains and Crp3, Crp8 to Crp10, Crp13, Crp14, and Crp17 being the strongest. The vLD50, vLD90, vLD99 and vLD99.9 values for Crp11 to E. coli differ from those for Crp14 by 3.4-, 7.0-, 11.8-, and 12.7-fold, respectively; for comparison, the vLD values for Crp11 to S. aureus are 3.1-, 5.0-, 6.8-, and 8.1-fold versus those for Crp10, respectively. Overall, S. aureus appears more susceptible to cryptdin killing than E. coli.
(§2) Antimicrobial assays against E. coli ATCC 25922 and S. aureus ATCC 29213 were conducted using a published 96-well turbidimetric method called “virtual colony count” ([67]). Briefly, a 2-fold dilution series of cryptdin, ranging from 1 to 256 μg/mL in 10 mM sodium phosphate (pH 7.4), was incubated at 37°C for 2 h with E. coli or S. aureus at 1 × 10^6 CFU/mL (a total volume of 100 μL), followed by the addition of 100 μL of twice-concentrated Mueller-Hinton broth (MHB). In addition to […] controls containing no cryptdin, a negative control termed “input” consisted of a portion of the same cell suspension kept on ice during the initial 2 h of incubation and added to the microplate just before addition of 100 μL of twice-concentrated MHB. Kinetic measurements of bacterial growth at 37°C were taken every 5 min over the next 12 h spectrophotometrically at 650 nm using a Tecan Spark plate reader. Data analysis utilized a Visual Basic script to automate the determination of the time necessary for each growth curve to reach a threshold change in optical density at 650 nm of 0.02 (ΔOD650), as previously described ([67]). Since the threshold times are inversely and linearly dependent on the logarithmic concentration of bacteria ([67]), survival data can be readily inferred from these calibration curves established in the absence of cryptdin. The rate of survival was calculated as the number of CFU of cryptdin-treated cells/number of CFU of control cells.

[2] = tested on: S. aureus ATCC 29213; test: virtual colony count (vCC) bactericidal assay, S. aureus; assay type: cell-based, Staphylococcus aureus
Method: as §1, §2

[3] = tested on: same cryptdin peptide immobilized on a CM5 sensor chip; test: surface plasmon resonance self-association of cryptdins; assay type: binding, mouse; conditions: 15.6-2,000 nM analyte over 400 to 500 RU of the same peptide on CM5 chip, 25°C, 10 mM HEPES, 150 mM NaCl, 3 mM EDTA, surfactant P20, pH 7.4; additional 150 mM NaCl for Crp1 and Crp11; Kd unattainable
Method: We examined Crp1, Crp4, Crp11, and Crp14 for their ability to self-associate at 25°C in 10 mM HEPES, 150 mM NaCl, 3 mM EDTA, 0.005% surfactant P20 (pH 7.4) using surface plasmon resonance (SPR) techniques. […] Due to the heterogenetic nature of defensin self-association and the lack of an appropriate mathematic model for data analysis, an accurate measurement of thermodynamic parameters such as Kd was unattainable.
FIG 10 Representative association and dissociation kinetics of cryptdins analyzed by surface plasmon resonance. Cryptdins in a 2-fold dilution series at concentrations ranging from 15.625 to 2000 nM were analyzed on self-immobilized sensor chips with resonance units (RUs) of 404 for Crp1 (A), 541 for Crp4 (B), 458 for Crp11 (C), 488 for Crp14 (D). To suppress nonspecific electrostatic interactions, an additional 150 mM NaCl was added to the running buffer for Crp1 and Crp11.
Surface plasmon resonance (SPR) experiments were performed, as described previously ([80]), on a BIAcore T200 system, at 25°C, in HBS-EP buffer (10 mM HEPES, 150 mM NaCl, 3 mM EDTA, […] surfactant P20 [pH 7.4]), with or without additional 150 mM NaCl. […] Analytes in a 2-fold dilution series at concentrations varying from 15.625 to 2,000 nM were injected into the flow cells at 30 μL/min in the running buffer, and association and dissociation assessed for 5 and 10 min, respectively. […]

[4] = dynamic light scattering (DLS) particle size / self-association in solution; assay type: physicochemical; conditions: DLS number distribution, equilibrated 120 s, room temperature, Malvern Zetasizer, representative
Method: For verification, we subjected the four cryptdin peptides at 10 μM to dynamic light scattering (DLS) analysis in phosphate saline buffers at pH 7.4 and pH 3.0. […] However, the particle sizes of Crp1 and Crp11 shifted dramatically at the elevated pH, to ~200 nm and >1,000 nm, respectively, indicative of formation of high-ordered soluble aggregates in solution. These DLS data are in qualitative agreement with the SPR findings.
Of note, Cryp1 and Cryp11 are among the weakest cryptdins against E. coli and S. aureus, whereas Cryp4 and Cryp14 are potently bactericidal. This phenomenon raised an intriguing possibility that the ability of cryptdins to self-associate in solution could perhaps inform their antibacterial activity.
Dynamic light scattering (DLS) is a technique that can be used to measure the hydrodynamic diameter of proteins in solution. The principle of this technique lies in the fact that the apparent size of a protein molecule is inversely related to the speed at which it diffuses in a constant, random Brownian motion; size information can be derived mathematically through deconvolution algorithms once the rate at which the intensity of scattered laser light fluctuates as a function of time is determined by DLS ([93]). […]

[5] = virtual lethal dose killing 90% of input cells, 2 h at 37°C in 10 mM sodium phosphate pH 7.4, three independent assays

## Crp1: mouse α-defensin cryptdin isoform 1, chemically synthesized and oxidatively folded, three disulfides (LRDLVCYCRSRGCKGRERMNGTCRKGHLLYTLCCR; disulfide 13-33, 8-23, 6-34; not fully specified; UniProt P11477 59-93, looked up)
[1]; peptide at 256 μg/mL, vCC
  reduction of E. coli survival: 5 orders of magnitude
[1]; virtual lethal dose killing 50% of input cells, 2-fold dilutions 1-256 μg/mL, 2 h at 37°C in 10 mM sodium phosphate pH 7.4, 1 × 10^6 CFU/mL, then MHB growth 12 h read at 650 nm, three independent assays
  Mean vLD ± SD, E. coli ATCC 25922, vLD50: 5.9 ± 0.3 µg/mL
[1]; [5]
  Mean vLD ± SD, E. coli ATCC 25922, vLD90: 13.4 ± 0.6 µg/mL
[1]; virtual lethal dose killing 99% of input cells, 2 h at 37°C in 10 mM sodium phosphate pH 7.4, three independent assays, LOD = limit of detection
  Mean vLD ± SD, E. coli ATCC 25922, vLD99: 25.4 ± 2.3 µg/mL
[1]; virtual lethal dose killing 99.9% of input cells, 2 h at 37°C in 10 mM sodium phosphate pH 7.4, three independent assays, LOD = limit of detection
  Mean vLD ± SD, E. coli ATCC 25922, vLD99.9: 41.9 ± 4.8 µg/mL
[2]; vCC survival curves, 2-fold dilution series, mean of triplicate experiments
  concentration at which S. aureus was completely killed / growth eliminated: 32 µg/mL
[2]; virtual lethal dose killing 50% of input cells, 2 h at 37°C in 10 mM sodium phosphate pH 7.4, 1 × 10^6 CFU/mL, three independent assays
  Mean vLD ± SD, S. aureus ATCC 29213, vLD50: 3.9 ± 0.6 µg/mL
[2]; [5]
  Mean vLD ± SD, S. aureus ATCC 29213, vLD90: 6.1 ± 0.5 µg/mL
[2]; virtual lethal dose killing 99% of input cells, 2 h at 37°C in 10 mM sodium phosphate pH 7.4, three independent assays
  Mean vLD ± SD, S. aureus ATCC 29213, vLD99: 9.1 ± 0.3 µg/mL
[2]; virtual lethal dose killing 99.9% of input cells, 2 h at 37°C in 10 mM sodium phosphate pH 7.4, three independent assays
  Mean vLD ± SD, S. aureus ATCC 29213, vLD99.9: 11.9 µg/mL and 11.9 ± 0.5 µg/mL
[3]
  self-association/dissociation kinetics by SPR: slow association, followed by slow dissociation kinetics
[4]; 10 μM peptide in phosphate saline buffer pH 3.0, filtered 0.22 μm disc membrane
  particle size in diameter by DLS, pH 3.0: around 1 nm
[4]; 10 μM peptide in phosphate saline buffer pH 7.4, filtered 0.22 μM disc membrane
  particle size in diameter by DLS, pH 7.4: ~ 200 nm
